# Measured values: patent publication US7989447B2, “1,5 and 3,6-substituted indole compounds having NOS inhibitory activity” (NeurAxon, Inc., priority 2006, dated 2011)
# Key:
# [1] = molecular target: human neuronal constitutive NOS (nNOS) (Homo sapiens, UniProt P29475); experiment: nNOS (Human) enzyme assay, radiometric conversion of [3H]L-arginine to [3H]L-citrulline; format: biochemical; details: for Ratio e/n: human eNOS / human nNOS; for IC50: recombinant human enzyme, 37° C., 45 min, read-out: Human nNOS
# [2] = molecular target: human endothelial constitutive NOS (eNOS) (Homo sapiens, UniProt P29474); experiment: eNOS (Human) enzyme assay, radiometric conversion of [3H]L-arginine to [3H]L-citrulline; format: biochemical; details: recombinant human enzyme, 37° C., 45 min; read-out: Human eNOS
# Method: Recombinant human inducible NOS (iNOS), human endothelial constitutive NOS (eNOS) or human neuronal constitutive NOS(nNOS) were produced in Baculovirus-infected Sf9 cells (ALEXIS). In a radiometric method, NO synthase activity was determined by measuring the conversion of [^3H]L-arginine to [^3H]L-citrulline. To measure iNOS, 10 μL of enzyme was added to 100 μL of 100 mM HEPES, pH=7,4, containing 1 mM CaCl2, 1 mM EDTA, 1 mM dithiotheitol, 1 μM FMN, 1 μM FAD, 10 μM tetrahydrobiopterin, 120 μM NADPH, and 100 nM CaM. To measure eNOS or nNOS, 10 μL of enzyme was added to 100 μL of 40 mM HEPES, pH=7.4, containing 2.4 mM CaCl2, 1 mM MgCl2, 1 mg/mL BSA, 1 mM EDTA, 1 mM dithiothreitol, 1 μM FMN, 1 μM FAD, 10 μM tetrahydrobiopterin, 1 mM NADPH, and 1.2 μM CaM.
# To measure enzyme inhibition, a 15 μL solution of a test substance was added to the enzyme assay solution, followed by a pre-incubation time of 15 min at RT. The reaction was initiated by addition of 20 μL L-arginine containing 0.25 μCi of [^3H]arginine/mL and 24 μM L-arginine. The total volume of the reaction mixture was 150 μL in every well. The reactions were carried out at 37° C. for 45 min. The reaction was stopped by adding 20 μL of ice-cold buffer containing 100 mM HEPES, 3 mM EGTA, 3 mM EDTA, pH=5.5. [^3H]L-citrulline was separated by DOWEX (ion-exchange resin DOWEX 50 W X 8-400, SIGMA) and the DOWEX was removed by spinning at 12,000 g for 10 min in the centrifuge. An 70 μL aliquot of the supernatant was added to 100 μL of scintillation fluid and the samples were counted in a liquid scintillation counter (1450 Microbeta Jet, Wallac). […] All assays were performed at least in duplicate.
# human neuronal constitutive NOS (nNOS), sequence (P29475 whole entry): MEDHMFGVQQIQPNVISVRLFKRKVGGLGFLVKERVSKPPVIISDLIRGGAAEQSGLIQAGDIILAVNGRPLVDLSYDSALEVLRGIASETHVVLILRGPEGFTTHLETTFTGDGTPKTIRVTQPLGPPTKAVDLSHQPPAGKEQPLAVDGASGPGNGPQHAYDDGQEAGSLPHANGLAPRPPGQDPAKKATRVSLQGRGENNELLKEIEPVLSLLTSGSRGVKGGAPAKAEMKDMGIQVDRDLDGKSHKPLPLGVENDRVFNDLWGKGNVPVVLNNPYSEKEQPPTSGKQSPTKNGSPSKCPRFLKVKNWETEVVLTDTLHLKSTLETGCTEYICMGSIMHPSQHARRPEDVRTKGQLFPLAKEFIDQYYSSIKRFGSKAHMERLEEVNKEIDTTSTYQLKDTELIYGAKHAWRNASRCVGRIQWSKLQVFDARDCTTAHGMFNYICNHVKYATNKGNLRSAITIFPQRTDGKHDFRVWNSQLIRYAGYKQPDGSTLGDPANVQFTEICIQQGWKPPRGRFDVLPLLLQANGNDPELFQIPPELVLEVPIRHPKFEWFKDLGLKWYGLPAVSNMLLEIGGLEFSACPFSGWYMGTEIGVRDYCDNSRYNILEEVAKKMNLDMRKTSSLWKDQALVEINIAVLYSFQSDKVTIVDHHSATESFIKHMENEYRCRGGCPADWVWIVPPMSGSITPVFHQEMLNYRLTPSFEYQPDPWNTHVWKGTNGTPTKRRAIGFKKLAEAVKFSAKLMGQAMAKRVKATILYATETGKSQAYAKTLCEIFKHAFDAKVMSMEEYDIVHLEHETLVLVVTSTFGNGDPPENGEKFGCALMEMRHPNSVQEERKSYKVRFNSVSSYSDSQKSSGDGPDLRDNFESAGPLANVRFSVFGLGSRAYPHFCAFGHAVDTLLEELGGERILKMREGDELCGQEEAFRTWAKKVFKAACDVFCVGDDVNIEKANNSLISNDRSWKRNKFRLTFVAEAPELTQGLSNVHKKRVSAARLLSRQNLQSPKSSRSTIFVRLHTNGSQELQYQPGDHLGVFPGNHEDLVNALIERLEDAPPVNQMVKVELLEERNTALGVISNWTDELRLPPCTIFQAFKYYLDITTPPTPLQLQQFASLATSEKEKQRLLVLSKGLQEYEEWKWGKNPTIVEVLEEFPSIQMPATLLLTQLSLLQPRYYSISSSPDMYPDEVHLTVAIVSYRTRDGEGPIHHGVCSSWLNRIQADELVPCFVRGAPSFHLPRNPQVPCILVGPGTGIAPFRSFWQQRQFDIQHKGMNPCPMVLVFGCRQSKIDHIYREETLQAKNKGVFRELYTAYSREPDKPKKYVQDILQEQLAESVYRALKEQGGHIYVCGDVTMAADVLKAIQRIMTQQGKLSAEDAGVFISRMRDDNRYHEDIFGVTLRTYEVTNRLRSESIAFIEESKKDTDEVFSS
SMILES,Ratio e/n [1],IC50 [1] [µM],IC50 [2] [µM]
"CN1CCCC1CCn1c(Cc2ccccc2)cc2cc(NC(=N)c3cccs3)ccc21 (stereo not drawn) [Compound 6, N-(2-benzyl-1-(2-(1-methylpyrrolidin-2-yl)ethyl)-1H-indol-5-yl)thiophene-2-carboximidamide]",41.57,0.19,7.9
"CN1CCCC1CCn1ccc2cc(CNC(=N)c3cccs3)ccc21 (stereo not drawn) [Compound 37, N-((1-(2-(1-methylpyrrolidin-2-yl)ethyl)-1H-indol-5-yl)methyl)thiophene-2-carboximidamide]",1.24,73,91
"N=C(Nc1ccc2c(ccn2CCCNC23CC4CC(CC(C4)C2)C3)c1)c1cccs1 [Compound 42, N-(1-(3-adamantanaminopropyl)-1H-indol-5-yl)thiophene-2-carboximidamide]",8.67,0.36,3.15
"CCN1CCCC1CNCCCn1ccc2cc(NC(=N)c3cccs3)ccc21 (stereo not drawn) [Compound 44, N-(1-(3-((1-ethylpyrrolidin-2-yl)methylamino)propyl)-1H-indol-5-yl)thiophene-2-carboximidamide]",,,6.33
"CN1CCCC1CCn1ccc2cc(NC(=N)c3cccs3)ccc21 (stereo not drawn) [Compound 56, N-(1-(2-(1-methylpyrrolidin-2-yl)ethyl)-1H-indol-5-yl)thiophene-2-carboximidamide]",,,4.49
"CN1CCCCC1CCn1ccc2cc(NC(=N)c3cccs3)ccc21 (stereo not drawn) [Compound 62, N-(1-(2-(1-methylpiperidin-2-yl)ethyl)-1H-indol-5-yl)thiophene-2-carboximidamide]",68.01,0.09,6.4
"N=C(Nc1ccc2c(ccn2-c2cccnc2)c1)c1cccs1 [Compound 74, N-(1-(pyridin-3-yl)-1H-indol-5-yl)thiophene-2-carboximidamide]",6.74,0.38,2.57

# The remaining lines, values ahead:
Ratio e/n [1],IC50 [1] [µM],IC50 [2] [µM],SMILES
,0.41,19,"N=C(Nc1ccc2c(c1)cc(-c1ccc([N+](=O)[O-])cc1)n2CCN1CCCCC1)c1cccs1 [Compound 18, N-(2-(4-nitrophenyl)-1-(2-(piperidin-1-yl)ethyl)-1H-indol-5-yl)thiophene-2-carboximidamide]"
3.88,0.82,3.18,"Cc1cc2cc(NC(=N)c3cccs3)ccc2n1CCN(C)C [Compound 25, N-(1-(2-(dimethylamino)ethyl)-2-methyl-1H-indol-5-yl)thiophene-2-carboximidamide]"
7.41,0.2,1.49,"Cc1cc2cc(NC(=N)c3cccs3)ccc2n1CCN1CCCC1 [Compound 28, N-(2-methyl-1-(2-(pyrrolidin-1-yl)ethyl)-1H-indol-5-yl)thiophene-2-carboximidamide]"
20.2,0.14,2.87,"Cc1cc2cc(NC(=N)c3cccs3)ccc2n1CCC1CCCN1C (stereo not drawn) [Compound 32, N-(2-methyl-1-(2-(1-methylpyrrolidin-2-yl)ethyl)-1H-indol-5-yl)thiophene-2-carboximidamide]"
9.09,0.66,6,"N=C(Nc1ccc2c(ccn2CCCN2CCOCC2)c1)c1cccs1 [Compound 40, N-(1-(3-morpholinopropyl)-1H-indol-5-yl)thiophene-2-carboximidamide]"
32.53,0.26,8.72,"N=C(Nc1ccc2c(ccn2CCCNC2CC2)c1)c1cccs1 [Compound 46, N-(1-(3-(cyclopropylamino)propyl)-1H-indol-5-yl)thiophene-2-carboximidamide]"
,,12.4,"CN(C)CCCn1ccc2cc(NC(=N)c3cccs3)ccc21 [Compound 48, N-(1-(3-(dimethylamino)propyl)-1H-indol-5-yl)thiophene-2-carboximidamide]"
,,13.9,"CN1CCCC1CCn1ccc2cc(NC(=N)c3ccco3)ccc21 (stereo not drawn) [Compound 53, N-(1-(2-(1-methylpyrrolidin-2-yl)ethyl)-1H-indol-5-yl)furan-2-carboximidamide]"
